Data as given in article PMC2965585 (Bioorganic & medicinal chemistry letters, 2010).

Assays:
[1] = test system: Lethal Toxin (LT; PA + LF); design: species or system Fischer 344 rats; conditions: rat, in vivo
[2] = biological target: anthrax lethal factor (LF) (Bacillus anthracis, UniProt P15917); format: biochemical
anthrax lethal factor (LF), sequence (P15917 34-809 limits assumed): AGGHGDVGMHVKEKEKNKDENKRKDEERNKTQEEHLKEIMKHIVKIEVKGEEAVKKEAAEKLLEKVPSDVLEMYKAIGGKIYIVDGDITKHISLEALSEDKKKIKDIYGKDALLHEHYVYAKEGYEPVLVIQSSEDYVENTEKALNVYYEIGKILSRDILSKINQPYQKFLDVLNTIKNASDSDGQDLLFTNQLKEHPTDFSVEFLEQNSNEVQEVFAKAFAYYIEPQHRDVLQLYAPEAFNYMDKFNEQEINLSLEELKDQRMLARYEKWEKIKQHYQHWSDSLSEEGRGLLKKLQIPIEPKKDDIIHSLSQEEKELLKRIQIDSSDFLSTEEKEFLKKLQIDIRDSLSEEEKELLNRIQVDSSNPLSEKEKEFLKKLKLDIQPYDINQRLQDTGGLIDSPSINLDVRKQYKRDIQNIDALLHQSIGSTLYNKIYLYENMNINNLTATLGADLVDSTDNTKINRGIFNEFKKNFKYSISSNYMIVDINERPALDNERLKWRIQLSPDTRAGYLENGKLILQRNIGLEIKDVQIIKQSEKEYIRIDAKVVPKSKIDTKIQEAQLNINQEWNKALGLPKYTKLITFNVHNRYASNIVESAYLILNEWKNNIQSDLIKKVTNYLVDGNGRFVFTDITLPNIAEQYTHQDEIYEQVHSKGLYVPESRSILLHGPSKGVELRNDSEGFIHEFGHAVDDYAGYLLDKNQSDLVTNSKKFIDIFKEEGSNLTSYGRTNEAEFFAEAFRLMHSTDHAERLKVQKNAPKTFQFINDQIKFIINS

Cc1cc(CNCCCC[C@@H](Nc2cc(C)c(F)c(C)c2)C(=O)NO)ccc1F [Compound 16]
protection [1]: fully protective
protection (percent survival) [1]: 100%
time after treatment with LT at which animals became ill ([1]; 2.5 mg/kg): approximately 3 hours
time post exposure by which animals appeared fully recovered ([1]; 2.5 mg/kg): ≤ 24 h

CO[C@H](C[C@H](CCN(C)CCCc1ccc(F)c(C)c1)C(=O)NO)c1ccc(F)cc1 [Compound 40]
mode of inhibition (kinetic studies) [2]: competitive behavior
